Reference: patent US4877795A, “4H-quinolizin-4-one compounds useful for the treatment of allergic bronchial asthma, allergic rhinitis atropic dermatitis and the like” (Kissei Pharmaceutical Co., Ltd., priority 1987, dated 1989)

Tests used:
IgE = assay: Determination of Igs produced in in vitro culture: inhibition of IgE secreted by spleen cells (adoptive secondary immune response to DNP-As), ELISA; format: cell-based, BALB/c mice; conditions: 4 days culture; for inhibition at 10 µg/mL: 10.0 μg/ml; for inhibition at 5 µg/mL: 5.0 μg/ml; for inhibition at 40 µg/mL: 40.0 μg/ml; for inhibition at 2.5 µg/mL: 2.5 μg/ml
In short: (§1)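 Donor BALB/c mice primed i.p. with 5 μg DNP-As on alum; 5×10^7 spleen cells transferred i.v. into 600-rad-irradiated recipients, boosted likewise. After 4 weeks, recipient spleen cells (5×10^6 cells/ml) cultured ± compound 4 days at 37° C; secreted IgG/IgE quantified by ELISA, % inhibition vs untreated culture.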

IgG = assay: Determination of Igs produced in in vitro culture: inhibition of IgG secreted by spleen cells (adoptive secondary immune response to DNP-As), ELISA; format: cell-based, BALB/c mice; conditions: 4 days culture; for inhibition at 10 µg/mL: 10.0 μg/ml; for inhibition at 5 µg/mL: 5.0 μg/ml; for inhibition at 40 µg/mL: 40.0 μg/ml; for inhibition at 2.5 µg/mL: 2.5 μg/ml
In short: as §1

CSc1c(C#N)c(=O)n2ccccc2c1C(=O)OC(C)CCc1ccccc1 (stereo not shown) [S-46, 1'-Methyl-3'-phenylpropyl 3-cyano-2-methylthio-4H-quinolizin-4-one-1-carboxylate]
inhibition at 1 µg/mL (IgE; Mus musculus, 96 h, 1.0 μg/ml): 90% | inhibition at 1 µg/mL (IgG; Mus musculus, 96 h, 1.0 μg/ml): 79%

CSc1c(C#N)c(=O)n2ccccc2c1C(=O)OCCCCc1ccccc1 [S-49, 4'-Phenylbutyl 3-cyano-2-methylthio-4H-quinolizin-4-one-1-carboxylate]
inhibition at 1 µg/mL (IgE; Mus musculus, 96 h, 1.0 μg/ml): 80% | inhibition at 1 µg/mL (IgG; Mus musculus, 96 h, 1.0 μg/ml): 56%

CSc1c(C#N)c(=O)n2ccccc2c1C(=O)Cc1ccccc1C [S-98, 3-Cyano-1-(2-methylphenylacetyl)-2-methylthio-4H-quinolizin-4-one]
inhibition at 10 µg/mL (IgE; Mus musculus, 96 h): 38% | inhibition at 10 µg/mL (IgG; Mus musculus, 96 h): 13%

N#Cc1c(SCc2ccccc2)c(C(=O)N2CCC(c3ccccc3)CC2)c2ccccn2c1=O (single isomer, unassigned) [S-83A, 2-Benzylthio-3-cyano-1-(4-phenylpiperidinocarbonyl)-4H-quinolizin-4-one]
inhibition at 1 µg/mL (IgE; Mus musculus, 96 h, 1.0 μg/ml): 67% | inhibition at 1 µg/mL (IgG; Mus musculus, 96 h, 1.0 μg/ml): 23%

CSc1c(C#N)c(=O)n2ccccc2c1C(=O)OCc1ccc(-c2ccccc2)cc1 [S-40, 4'-phenylbenzyl 3-cyano-2-methylthio-4H-quinolizin-4-one-1-carboxylate]
inhibition at 0.25 µg/mL (IgE; Mus musculus, 96 h, 0.25 μg/ml): 53% | inhibition at 0.25 µg/mL (IgG; Mus musculus, 96 h, 0.25 μg/ml): 34%

CSc1c(C#N)c(=O)n2ccccc2c1C(=O)O[C@H]1CC[C@H](O)CC1 [S-16, trans-4'-Hydroxycyclohexyl 3-cyano-2-methylthio-4H-quinolizin-4-one-1-carboxylate]
inhibition at 5 µg/mL (IgE; Mus musculus, 96 h): 52% | inhibition at 5 µg/mL (IgG; Mus musculus, 96 h): 14%

CSc1c(C#N)c(=O)n2ccccc2c1C(=O)CC1CCCCC1 [S-94, 3-Cyano-1-cyclohexylacetyl-2-methylthio-4H-quinolizin-4-one]
inhibition at 1 µg/mL (IgE; Mus musculus, 96 h, 1.0 μg/ml): 62% | inhibition at 1 µg/mL (IgG; Mus musculus, 96 h, 1.0 μg/ml): 33%

CSc1c(C#N)c(=O)n2ccccc2c1C(=O)OC1C=CCCC1 (stereo not shown) [S-15, 2'-Cyclohexenyl 3-cyano-2-methylthio-4H-quinolizin-4-one-1-carboxylate]
inhibition at 40 µg/mL (IgE; Mus musculus, 96 h): 62% | inhibition at 40 µg/mL (IgG; Mus musculus, 96 h): 21%

COc1ccc(COC(=O)c2c(SC)c(C#N)c(=O)n3ccccc23)cc1 [S-31, 4'-Methoxybenzyl 3-cyano-2-methylthio-4H-quinolizin-4-one-1-carboxylate]
inhibition at 40 µg/mL (IgE; Mus musculus, 96 h): 34% | inhibition at 40 µg/mL (IgG; Mus musculus, 96 h): 3%

CSc1c(C#N)c(=O)n2ccccc2c1C(=O)CCCc1ccccc1 [S-105, 3-Cyano-2-methylthio-1-(4-phenylbutyryl)-4H-quinolizin-4one]
inhibition at 1 µg/mL (IgE; Mus musculus, 96 h, 1.0 μg/ml): 65% | inhibition at 1 µg/mL (IgG; Mus musculus, 96 h, 1.0 μg/ml): 21%

CSc1c(C#N)c(=O)n2ccccc2c1C(=O)Cc1cccc2ccccc12 [S-103, 3-Cyano-2-mehtylthio-1-(1-naphthylacetyl)-4H-quinolizin-4-one]
inhibition at 2.5 µg/mL (IgE; Mus musculus, 96 h): 49% | inhibition at 2.5 µg/mL (IgG; Mus musculus, 96 h): 15%

CSc1c(C#N)c(=O)n2ccccc2c1C(=O)N(Cc1ccccc1)C(C)C [S-68, N-Benzyl-3-cyano-N-isopropyl-2-methylthio-4H-quinolizin-4-one-1-carboxamide]
inhibition at 2.5 µg/mL (IgE; Mus musculus, 96 h): 41% | inhibition at 2.5 µg/mL (IgG; Mus musculus, 96 h): 7%

CSc1c(C#N)c(=O)n2ccccc2c1C(=O)N(C(C)C)C1CCCCC1 [S-69, 3-Cyano-N-cyclohexyl-N-isopropyl-2-methylthio-4H-quinolizin-4-one-1-carboxamide]
inhibition at 2.5 µg/mL (IgE; Mus musculus, 96 h): 56% | inhibition at 2.5 µg/mL (IgG; Mus musculus, 96 h): 22%

CSc1c(C#N)c(=O)n2ccccc2c1C(=O)OC/C=C/c1ccccc1 [S-47, trans-Cinnamyl 3-cyano-2-methylthio-4H-quinolizin-4-one-1-carboxylate]
inhibition at 40 µg/mL (IgE; Mus musculus, 96 h): 60% | inhibition at 40 µg/mL (IgG; Mus musculus, 96 h): 28%

CSc1c(C#N)c(=O)n2ccccc2c1C(=O)N(CC(C)C)CC(C)C [S-64, 3-Cyano-N,N-diisobutyl-2-methylthio-4H-quinolizin-4-one-1-carboxamide]
inhibition at 5 µg/mL (IgE; Mus musculus, 96 h): 65% | inhibition at 5 µg/mL (IgG; Mus musculus, 96 h): 41%

CCCCSc1c(C#N)c(=O)n2ccccc2c1C(=O)OCC [S-58, Ethyl 3-cyano-2-butylthio-4H-quinolizin-4-one-1-carboxylate]
inhibition at 10 µg/mL (IgE; Mus musculus, 96 h): 89% | inhibition at 10 µg/mL (IgG; Mus musculus, 96 h): 60%

CSc1c(C#N)c(=O)n2ccccc2c1C(=O)N(C1CCCCC1)C1CCCCC1 [S-61, 3-Cyano-N,N-dicyclohexyl-2-methylthio-4H-quinolizin-4-one-1-carboxamide]
inhibition at 2.5 µg/mL (IgE; Mus musculus, 96 h): 93% | inhibition at 2.5 µg/mL (IgG; Mus musculus, 96 h): 48%

C=CCOC(=O)c1c(SC)c(C#N)c(=O)n2ccccc12 [S-5, 2'-Propenyl 3-cyano-2-methylthio-4H-quinolizin-4-one-1-carboxylate]
inhibition at 20 µg/mL (IgE; Mus musculus, 96 h, 20.0 μg/ml): 77% | inhibition at 20 µg/mL (IgG; Mus musculus, 96 h, 20.0 μg/ml): 47%

CSc1c(C#N)c(=O)n2ccccc2c1C(=O)OC(C)c1ccccc1 (stereo not shown) [S-24, 1'-Phenylethyl 3-cyano-2-methylthio-4H-quinolizin-4-one-1-carboxylate]
inhibition at 40 µg/mL (IgE; Mus musculus, 96 h): 77% | inhibition at 40 µg/mL (IgG; Mus musculus, 96 h): 54%

CSc1c(C#N)c(=O)n2ccccc2c1C(=O)N1CCCCC1 [S-79, 3-Cyano-2-methylthio-1-piperidinocarbonyl-4H-quinolizin-4-one]
inhibition at 40 µg/mL (IgE; Mus musculus, 96 h): 59% | inhibition at 40 µg/mL (IgG; Mus musculus, 96 h): 13%

CSc1c(C#N)c(=O)n2ccccc2c1C(=O)NC1CCCCC1 [S-72, 3-Cyano-N-cyclohexyl-2-methylthio-4H-quinolizin-4-one-1-carboxamide]
inhibition at 5 µg/mL (IgE; Mus musculus, 96 h): 46% | inhibition at 5 µg/mL (IgG; Mus musculus, 96 h): -5%

CSc1c(C#N)c(=O)n2ccccc2c1C(=O)Nc1nc(-c2ccccc2)cs1 [S-75, 3-Cyano-2-methylthio-N-(4-phenyl-2-thiazolyl)-4H-quinolizin-4-one-1-carboxamide]
inhibition at 2.5 µg/mL (IgE; Mus musculus, 96 h): 50% | inhibition at 2.5 µg/mL (IgG; Mus musculus, 96 h): 25%

CSc1c(C#N)c(=O)n2ccccc2c1C(=O)Cc1ccc(C)c(C)c1 [S-101, 3-Cyano-1-(3,4-dimethylphenylacetyl)-2-methylthio-4H-quinolizin-4-one]
inhibition at 40 µg/mL (IgE; Mus musculus, 96 h): 58% | inhibition at 40 µg/mL (IgG; Mus musculus, 96 h): 13%

CSc1c(C#N)c(=O)n2ccccc2c1C(=O)OCC(c1ccccc1)c1ccccc1 [S-44, 2',2'-Diphenylethyl 3-cyano-2-methylthio-4H-quinolizin-4-one-1-carboxylate]
inhibition at 1 µg/mL (IgE; Mus musculus, 96 h, 1.0 μg/ml): 54% | inhibition at 1 µg/mL (IgG; Mus musculus, 96 h, 1.0 μg/ml): 18%

CSc1c(C#N)c(=O)n2ccccc2c1C(=O)N1CCN(Cc2ccc3c(c2)OCO3)CC1 [S-89, 3-Cyano-2-methylthio-1-(4-piperonyl-1-piperadinyl-carbonyl)-4H-quinolizin-4-one]
inhibition at 5 µg/mL (IgE; Mus musculus, 96 h): 58% | inhibition at 5 µg/mL (IgG; Mus musculus, 96 h): 32%

CSc1c(C#N)c(=O)n2ccccc2c1C(=O)OC1CCCc2ccccc21 (stereo not shown) [S-22, 1',2',3',4'-Tetrahydro-1'-naphthyl 3-cyano-2-methylthio-4H-quinolizin-4-one-1-carboxylate]
inhibition at 40 µg/mL (IgE; Mus musculus, 96 h): 82% | inhibition at 40 µg/mL (IgG; Mus musculus, 96 h): 42%

CSc1c(C#N)c(=O)n2ccccc2c1C(=O)Cc1ccc(C)cc1 [S-99, 3-Cyano-1-(4-methylphenylacetyl)-2-methylthio-4H-quinolizin-4-one]
inhibition at 10 µg/mL (IgE; Mus musculus, 96 h): 52% | inhibition at 10 µg/mL (IgG; Mus musculus, 96 h): 1%

CSc1c(C#N)c(=O)n2ccccc2c1C(=O)OCc1ccc2ccccc2c1 [S-41, 2'-Napthylmethyl 3-cyano-2-methylthio-4H-quinolizin-4-one-1-carboxylate]
inhibition at 1 µg/mL (IgE; Mus musculus, 96 h, 1.0 μg/ml): 86% | inhibition at 1 µg/mL (IgG; Mus musculus, 96 h, 1.0 μg/ml): 68%

COc1cccc(COC(=O)c2c(SC)c(C#N)c(=O)n3ccccc23)c1 [S-35, 3'-Methoxybenzyl 3-cyano-2-methylthio-4H-quinolizin-4-one-1-carboxylate]
inhibition at 1 µg/mL (IgE; Mus musculus, 96 h, 1.0 μg/ml): 64% | inhibition at 1 µg/mL (IgG; Mus musculus, 96 h, 1.0 μg/ml): 45%

CSc1c(C#N)c(=O)n2ccccc2c1C(=O)OCc1cccc(Cl)c1 [S-38, 3'-Chlorobenzyl 3-cyano-2-methylthio-4H-quinolizin-4-one-1-carboxylate]
inhibition at 1 µg/mL (IgE; Mus musculus, 96 h, 1.0 μg/ml): 77% | inhibition at 1 µg/mL (IgG; Mus musculus, 96 h, 1.0 μg/ml): 43%

CSc1c(C#N)c(=O)n2ccccc2c1C(=O)CCc1ccccc1 [S-104, 3-Cyano-2-methylthio-1-(3-phenylpropionyl)-4H-quinolizin-4-one]
inhibition at 2.5 µg/mL (IgE; Mus musculus, 96 h): 66% | inhibition at 2.5 µg/mL (IgG; Mus musculus, 96 h): 39%

CSc1c(C#N)c(=O)n2ccccc2c1C(=O)OC(C)Cc1ccccc1 (stereo not shown) [S-43, 1'-Methyl-2'-phenylethyl 3-cyano-2-methylthio-4H-quinolizin-4-one-1-carboxylate]
inhibition at 1 µg/mL (IgE; Mus musculus, 96 h, 1.0 μg/ml): 75% | inhibition at 1 µg/mL (IgG; Mus musculus, 96 h, 1.0 μg/ml): 46%

CSc1c(C#N)c(=O)n2ccccc2c1C(=O)N1CCCc2ccccc21 [S-88, 3-Cyano-2-methylthio-1-(1,2,3,4-tetrahydroquinolin-1-ylcarbonyl)-4H-quinolizin-4-one]
inhibition at 2.5 µg/mL (IgE; Mus musculus, 96 h): 40% | inhibition at 2.5 µg/mL (IgG; Mus musculus, 96 h): 7%

COc1ccc(CC(=O)c2c(SC)c(C#N)c(=O)n3ccccc23)cc1 [S-102, 3-Cyano-1-(4-methoxyphenylacetyl)-2-methylthio-4H-quinolizin-4-one]
inhibition at 10 µg/mL (IgE; Mus musculus, 96 h): 52% | inhibition at 10 µg/mL (IgG; Mus musculus, 96 h): 20%

CSc1c(C#N)c(=O)n2ccccc2c1C(=O)OCc1ccc(C)c(C)c1 [S-25, 3',4'-Dimethylbenzyl 3-cyano-2-methylthio-4H-quinolizin-4-one-1-carboxylate]
inhibition at 5 µg/mL (IgE; Mus musculus, 96 h): 75% | inhibition at 5 µg/mL (IgG; Mus musculus, 96 h): 54%

CSc1c(C#N)c(=O)n2ccccc2c1C(=O)CC1CCN(c2ccccc2)CC1 [S-109, 3-Cyano-2-methylthio-1-(1-phenyl-4-piperidylacetyl)-4-quinolizin-4-one]
Inhibition % of IgE (IgE; 1.0 μg/ml): 77% | Inhibition % of IgG (IgG; 1.0 μg/ml): 54%

CSc1c(C#N)c(=O)n2ccccc2c1C(=O)OCCCOc1ccccc1 [S-54, 3'-Phenoxypropyl 3-cyano-2-methylthio-4H-quinolizin-4-one-1-carboxylate]
inhibition at 1 µg/mL (IgE; Mus musculus, 96 h, 1.0 μg/ml): 73% | inhibition at 1 µg/mL (IgG; Mus musculus, 96 h, 1.0 μg/ml): 50%

CSc1c(C#N)c(=O)n2ccccc2c1C(=O)OC1CCC1 [S-13, Cyclobutyl 3-cyano-2-methylthio-4H-quinolizin-4-one-1-carboxylate]
inhibition at 5 µg/mL (IgE; Mus musculus, 96 h): 67% | inhibition at 5 µg/mL (IgG; Mus musculus, 96 h): 9%
